Assay results: patent US20180177771A1, “BIOMARKERS FOR NANOPARTICLE COMPOSITIONS” (priority 2015, published 2018)

Legend:
[1] = in vivo; cited from earlier work
ABCB1/ABCG2 = settings: cited from earlier work
[2] = test system: UMUC3 human bladder cancer xenografts; experiment: UMUC3 bladder cancer mouse xenograft, Part B combination study; settings: ABI-009 3 mg/kg twice weekly IV, gemcitabine 30 mg/kg twice weekly IP
Method: The anti-tumor efficacy of a panel of drugs, including mitomycin C, cisplatin, gemcitabine, valrubicin, and docetaxel, in combination with Nab-sirolimus (such as ABI-009) were evaluated and compared in a UMUC3 cell xenograft model in athymic nude mice.
Tumors were established from the UMUC3 cells as follows. Female athymic nude mice were obtained and housed in filter-topped cages supplied with autoclaved bedding. Animal handling procedures were under laminar flow hood. Each mouse was ear tagged for individual identification, and the body weight of each mouse was recorded. UMUC3 cells (10×10^6 cells per flank in 0.1 mL PBS with 20% Matrigel) were injected subcutaneously into the right flank of each mouse to implant the tumor. Tumor measurements were recorded three times per week (such as on Mondays, Wednesdays and Fridays) until tumors became approximately 60 to 160 mm^3 total. The mice were randomized for treatment once the average tumor volumes reached approximately 100 mm^2. Prior to the treatment, body weights and tumor measurements of all mice were recorded.
In the Part B combination study, athymic mice bearing UMUC3 human bladder cancer xenografts were treated until study end with ABI-009 (3 mg/kg, twice weekly, IV via tail vein), mitomycin C (0.5 mg/kg, twice weekly, IP), cisplatin (3 mg/kg, twice weekly. IP), gemcitabine (30 mg/kg, twice weekly, IP), valrubicin (20 mg/kg, twice weekly, IP), and docetaxel (3 mg/kg, twice weekly, IP) either as single agent or in combination (ABI-009 plus chemotherapeutic agent). Animals were monitored for tumor volume and body weight.
In each combination of drugs being administered comprising Nab-sirolimus and a second drug (such as MMC. Cis, GEM. Val, and Doc), the second drug was administered immediately before Nab-sirolimus. The mice were monitored during the course of the treatment by recording body weights three times per week (such as on Mondays, Wednesdays and Fridays), recording signs of distress daily, and recording tumor measurements three times per week (such as on Mondays. Wednesdays and Fridays). Measurements of tumor sizes and body weights were continued for 2 weeks following completion of the dosing regimen, or until the mouse was sacrificed when the tumor size of the mouse is more than 2000 mm^3.

Structure (SMILES) | brain penetration [1] | affinity for ABCB1/ABCG2 (ABCB1/ABCG2) | animal survival compared with saline control [2] | antitumor activity (tumor growth inhibition) compared with saline control [2] | median survival ([2]; Log-rank test) [days] | TGI ([2]; single agent or combination) [%]
COc1ccc(COc2cc3oc(=O)c4cc(C(C)O)ccc4c3cc2OC)cc1 (stereo not drawn) [Palomid 529] | good brain penetration | lacks affinity for ABCB1/ABCG2 | – | – | – | –
Nc1ccn([C@@H]2O[C@H](CO)[C@@H](O)C2(F)F)c(=O)n1 [gemcitabine] | – | – | only modest effects | only modest effects | 20 | 41.7
